According to ChEMBL document CHEMBL1124471, “Design and synthesis of inhibitors of N8-acetylspermidine deacetylase” (J Med Chem, 1989):

Tested on: N8-acetylspermidine deacetylase (Rattus norvegicus); call rule not given here
Experiment: Inhibition of [acetyl-3H]-N8-Acetylspermidine deacetylase; NI = No inhibition

Ki app: Not Active
SMILES: COC(=O)NCCCCCCN
